Reference: PMC12066708 (Communications Biology, 2025)

Molecular target: T1, Kell (Homo sapiens, UniProt P23276)
T1 sequence (P23276 1-732): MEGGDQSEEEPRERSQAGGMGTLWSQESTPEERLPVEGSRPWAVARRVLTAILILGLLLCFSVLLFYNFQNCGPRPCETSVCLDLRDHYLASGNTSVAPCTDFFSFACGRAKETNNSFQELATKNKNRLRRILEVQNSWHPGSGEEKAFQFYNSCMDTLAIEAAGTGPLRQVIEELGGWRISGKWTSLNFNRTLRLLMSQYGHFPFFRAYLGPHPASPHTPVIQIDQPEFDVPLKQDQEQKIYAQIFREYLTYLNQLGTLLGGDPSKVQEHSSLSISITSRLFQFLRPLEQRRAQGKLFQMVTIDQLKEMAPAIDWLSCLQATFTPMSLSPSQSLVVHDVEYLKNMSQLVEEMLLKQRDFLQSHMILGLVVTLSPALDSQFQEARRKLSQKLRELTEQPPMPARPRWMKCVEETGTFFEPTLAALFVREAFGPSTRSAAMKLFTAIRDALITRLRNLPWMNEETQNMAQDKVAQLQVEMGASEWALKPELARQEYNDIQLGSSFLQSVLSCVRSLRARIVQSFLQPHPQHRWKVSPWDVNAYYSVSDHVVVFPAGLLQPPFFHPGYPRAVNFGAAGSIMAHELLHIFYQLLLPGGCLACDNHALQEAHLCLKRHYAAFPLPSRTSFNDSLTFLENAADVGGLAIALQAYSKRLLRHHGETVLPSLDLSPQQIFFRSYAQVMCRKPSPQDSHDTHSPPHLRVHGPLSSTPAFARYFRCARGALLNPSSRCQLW
Assay: microscale thermophoresis
Format: binding

- Kd: 33 µM
Structure (SMILES): O=C(O)CNC(=O)C(CS)Cc1ccccc1 (stereo not shown) [thiorphan]
